This passage reports IC50 results from patent publication US20260327191A1, “GSK3a INHIBITORS AND METHODS OF USE THEREOF” (Blueprint Medicines Corporation, priority 2023, published 2026).

The target of experiment [1] is T1, GSK3B (Homo sapiens, UniProt P49841). Briefly: NanoBRET cellular target engagement assay, Nanoluc-GSK3B in HEK293 cells. To be noted: NanoBRET GSK3β IC50, HEK293 cells, tracer K-8, 2 hours, 37° C. The experiment is classed as cell-based. More on the design: expressed in transfected cells.
T1 sequence (P49841 whole entry): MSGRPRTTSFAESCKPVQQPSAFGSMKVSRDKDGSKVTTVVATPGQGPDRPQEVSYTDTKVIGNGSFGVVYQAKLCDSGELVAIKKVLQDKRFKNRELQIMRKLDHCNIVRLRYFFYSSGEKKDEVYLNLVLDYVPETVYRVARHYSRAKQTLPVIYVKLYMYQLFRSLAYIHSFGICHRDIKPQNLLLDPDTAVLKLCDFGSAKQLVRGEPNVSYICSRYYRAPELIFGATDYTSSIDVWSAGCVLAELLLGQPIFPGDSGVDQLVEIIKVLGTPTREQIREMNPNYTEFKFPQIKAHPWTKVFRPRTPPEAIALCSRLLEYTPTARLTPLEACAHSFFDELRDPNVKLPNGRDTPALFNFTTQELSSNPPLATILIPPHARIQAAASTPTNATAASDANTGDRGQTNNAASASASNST
A further experiment concerns the target T2, human GSK3α (Homo sapiens, UniProt P49840).
T2 construct: Full length human GSK3α or GSK3B expressed as N-terminal GST fusion proteins; GST (N); purchased Carna Biosciences (Japan); host or cells: baculovirus host
In words: In vitro enzymatic activity assay, GSK3α. The experiment is classed as biochemical. To be noted: 1.0 mM ATP, 1.0 μM peptide substrate, 120 min, 25° C, read-out: Enzyme GSK3α (IC50).

Experiment [2] concerns the target T1, GSK3B. In words: In vitro enzymatic activity assay, GSK3β. The experiment is classed as biochemical. Further details: Full length human GSK3α or GSK3B expressed as N-terminal GST fusion proteins; GST (N); purchased Carna Biosciences (Japan); host or cells: baculovirus host. To be noted: 1.0 mM ATP, 1.0 μM peptide substrate, 120 min, 25° C, read-out: Enzyme GSK3β (IC50).

In the next experiment the target is T3, GSK3A (Homo sapiens, UniProt P49840).
T3 construct: expressed in transfected cells
T3 sequence (P49840 whole entry): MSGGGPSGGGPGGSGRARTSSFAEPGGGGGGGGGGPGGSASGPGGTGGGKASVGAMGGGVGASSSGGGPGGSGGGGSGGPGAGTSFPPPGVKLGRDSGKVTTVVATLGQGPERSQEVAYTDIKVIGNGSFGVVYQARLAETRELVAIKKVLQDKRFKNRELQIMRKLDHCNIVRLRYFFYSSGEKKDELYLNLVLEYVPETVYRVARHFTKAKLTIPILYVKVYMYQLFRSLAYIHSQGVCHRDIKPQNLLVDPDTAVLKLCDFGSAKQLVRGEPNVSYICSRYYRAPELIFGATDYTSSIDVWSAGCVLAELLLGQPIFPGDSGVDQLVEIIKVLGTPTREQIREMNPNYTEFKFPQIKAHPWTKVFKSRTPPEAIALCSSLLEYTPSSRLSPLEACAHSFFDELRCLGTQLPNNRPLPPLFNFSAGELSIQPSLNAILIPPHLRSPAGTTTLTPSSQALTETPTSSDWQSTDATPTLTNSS
Briefly: NanoBRET cellular target engagement assay, Nanoluc-GSK3A in HEK293 cells. To be noted: NanoBRET GSK3α IC50, HEK293 cells, tracer K-8, 2 hours, 37° C. The experiment is classed as cell-based. On the technique in general: Bioluminescence resonance energy transfer reports proximity on the nanometre scale.

T2 sequence (P49840 whole entry, the tested form may be a part): as the sequence (P49840 whole entry) above

For the compound `Cc1cc(C(F)(F)F)cc(C)c1-n1cnc(N)c(C(=O)Nc2cncc(C3CCCC(C)N3)c2)c1=O` (single isomer, unassigned) [Example 90], the half-maximal inhibitory concentration (IC50) (commonly the concentration that inhibits the measured activity by half) against GSK3B [1] came out at 700 nM; on human GSK3α, 15.6 nM; on GSK3B [2], 1070 nM; at GSK3A, 6.5 nM.

Consider `CCOc1cc(C)c(-n2cnc(N)c(C(=O)Nc3cncc(C4CCC(C)N4)c3)c2=O)c(C)c1` (single isomer, unassigned) [Example 92], for which the IC50 at GSK3B [1] came out at 584 nM; at human GSK3α, 16.4 nM; at GSK3B [2] it was 1030 nM; on GSK3A it was 6.8 nM.

As for `CCOc1cc(C)c(-n2cnc(N)c(C(=O)Nc3cncc(C4CCC(C)N4)c3)c2=O)c(C)c1` (single isomer, unassigned) [Example 93], the 50% inhibitory concentration (IC50) is 914 nM against GSK3B [1], 31.7 nM at human GSK3α, 1950 nM at GSK3B [2] and 9.3 nM at GSK3A.

Take `CCOc1cc(C)c(-n2cnc(N)c(C(=O)Nc3cncc(C4CCCCCN4)c3)c2=O)c(C)c1` (single isomer, unassigned) [Example 95, (R)-4-amino-N-(5-(azepan-2-yl)pyridin-3-yl)-1-(4-ethoxy-2,6-dimethylphenyl)-6-oxo-1,6-dihydropyrimidine-5-carboxamide or (S)-4-amino-N-(5-(azepan-2-yl)pyridin-3-yl)-1-(4-ethoxy-2,6-dimethylphenyl)-6-oxo-1,6-dihydropyrimidine-5-carboxamide]: the IC50 on GSK3B [1] is 290 nM; on human GSK3α it was 9.8 nM; at GSK3B [2], 465 nM; on GSK3A it was 4.3 nM.

Take `CCOc1cc(C)c(-n2cnc(N)c(C(=O)Nc3cncc(C4CCCC(C)N4)c3)c2=O)c(C)c1` (single isomer, unassigned) [Example 96]: the 50% inhibitory concentration (IC50) turned out to be 640 nM against GSK3B [1], 16.4 nM at human GSK3α, 706 nM at GSK3B [2] and 6.7 nM at GSK3A.

On to `COCc1cc(C)c(-n2cnc(N)c(C(=O)Nc3cncc(C4CCCCCN4)c3)c2=O)c(C)c1` (single isomer, unassigned) [Example 100, (R)-4-amino-N-(5-(azepan-2-yl)pyridin-3-yl)-1-(4-(methoxymethyl)-2,6-dimethylphenyl)-6-oxo-1,6-dihydropyrimidine-5-carboxamide or (S)-4-amino-N-(5-(azepan-2-yl)pyridin-3-yl)-1-(4-(methoxymethyl)-2,6-dimethylphenyl)-6-oxo-1,6-dihydropyrimidine-5-carboxamide], for which the half-maximal inhibitory concentration (IC50) was 293 nM on GSK3B [1], 8.2 nM at human GSK3α, 348 nM at GSK3B [2] and 3.9 nM on GSK3A.

`COCc1cc(C)c(-n2cnc(N)c(C(=O)Nc3cncc(C4CCC(C)N4)c3)c2=O)c(C)c1` (single isomer, unassigned) [Example 101]: the IC50 at GSK3B [1] stood at 800 nM; on human GSK3α, 19.6 nM; on GSK3B [2] it was 941 nM; against GSK3A, 7.8 nM.

As to `COCc1cc(C)c(-n2cnc(N)c(C(=O)Nc3cncc([C@H]4CCC[C@H](C)N4)c3)c2=O)c(C)c1` (single isomer, unassigned) [Example 102], the 50% inhibitory concentration (IC50) against GSK3B [1] amounted to 584 nM; at human GSK3α, 16.5 nM; on GSK3B [2], 684 nM; on GSK3A, 5 nM.

For the compound `COCc1cc(C)c(-n2cnc(N)c(C(=O)Nc3cncc([C@H]4CC[C@H](C)N4)c3)c2=O)c(C)c1` (single isomer, unassigned) [Example 103], the half-inhibitory concentration (IC50) at GSK3B [1] stood at 532 nM; on human GSK3α, 13.2 nM; at GSK3B [2] it was 581 nM; at GSK3A, 6.6 nM.

In the case of `CCOc1cc(C)c(-n2cnc(N)c(C(=O)Nc3cncc(C(C)N)c3)c2=O)c(C)c1` (single isomer, unassigned) [Example 104, (R)-4-amino-N-(5-(1-aminoethyl)pyridin-3-yl)-1-(4-ethoxy-2,6-dimethylphenyl)-6-oxo-1,6-dihydropyrimidine-5-carboxamide or (S)-4-amino-N-(5-(1-aminoethyl)pyridin-3-yl)-1-(4-ethoxy-2,6-dimethylphenyl)-6-oxo-1,6-dihydropyrimidine-5-carboxamide], the 50% inhibitory concentration (IC50) on GSK3B [1] turned out to be 521 nM; at human GSK3α it was 16.2 nM; on GSK3B [2] it was 746 nM; on GSK3A it was 7.9 nM.

With `Cc1cc(C(F)F)cc(C)c1-n1cnc(N)c(C(=O)Nc2cncc(C3CCCC(C)N3)c2)c1=O` (single isomer, unassigned) [Example 107], the IC50 is 434 nM against GSK3B [1], 10 nM at human GSK3α, 671 nM on GSK3B [2] and 3.9 nM on GSK3A.

As to `Cc1cc(C(F)F)cc(C)c1-n1cnc(N)c(C(=O)Nc2cncc([C@H]3CCC[C@H](C)N3)c2)c1=O` (single isomer, unassigned) [Example 108], the half-inhibitory concentration (IC50) came to 688 nM at GSK3B [1], 24.6 nM on human GSK3α, 998 nM at GSK3B [2] and 8.7 nM at GSK3A.

Turning to `Cc1cc(C(F)CF)cc(C)c1-n1cnc(N)c(C(=O)Nc2cncc(C3CCCCCN3)c2)c1=O` (single isomer, unassigned) [Example 112], the IC50 against GSK3B [1] came to 349 nM; on human GSK3α, 10.5 nM; on GSK3B [2], 493 nM; against GSK3A, 5.1 nM.

As to `Cc1cc(C(F)CF)cc(C)c1-n1cnc(N)c(C(=O)Nc2cncc([C@H]3CCCCN3)c2)c1=O` (single isomer, unassigned) [Example 113, 4-amino-1-(4-((R)-1,2-difluoroethyl)-2,6-dimethylphenyl)-6-oxo-N-(5-((R)-piperidin-2-yl)pyridin-3-yl)-1,6-dihydropyrimidine-5-carboxamide or 4-amino-1-(4-((S)-1,2-difluoroethyl)-2,6-dimethylphenyl)-6-oxo-N-(5-((R)-piperidin-2-yl)pyridin-3-yl)-1,6-dihydropyrimidine-5-carboxamide], the IC50 against GSK3B [1] was determined as 107 nM; at human GSK3α it was 3 nM; on GSK3B [2], 133 nM; against GSK3A, 1.7 nM.

On to `Cc1cc(C(F)CF)cc(C)c1-n1cnc(N)c(C(=O)Nc2cncc(C(C)N)c2)c1=O` (single isomer, unassigned) [Example 114], for which the half-maximal inhibitory concentration (IC50) is 252 nM against GSK3B [1], 12.1 nM on human GSK3α, 507 nM at GSK3B [2] and 4.4 nM at GSK3A.

As for `Cc1cc(C(F)CF)cc(C)c1-n1cnc(N)c(C(=O)Nc2cncc(C3CCCCCN3)c2)c1=O` (single isomer, unassigned) [Example 115], the IC50 was 281 nM against GSK3B [1], 7.6 nM at human GSK3α, 362 nM on GSK3B [2] and 4.7 nM against GSK3A.

As for `CNCc1cncc(NC(=O)c2c(N)ncn(-c3c(Cl)cc(C(F)CF)cc3Cl)c2=O)c1` (single isomer, unassigned) [Example 116, (R)-4-amino-1-(2,6-dichloro-4-(1,2-difluoroethyl)phenyl)-N-(5-((methylamino)methyl)pyridin-3-yl)-6-oxo-1,6-dihydropyrimidine-5-carboxamide or (S)-4-amino-1-(2,6-dichloro-4-(1,2-difluoroethyl)phenyl)-N-(5-((methylamino)methyl)pyridin-3-yl)-6-oxo-1,6-dihydropyrimidine-5-carboxamide], the half-inhibitory concentration (IC50) against GSK3B [1] was 101 nM; at human GSK3α, 2.9 nM; on GSK3B [2], 125 nM; against GSK3A, 1.8 nM.

Turning to `CNCc1cncc(NC(=O)c2c(N)ncn(-c3c(Cl)cc(C(F)CF)cc3Cl)c2=O)c1` (single isomer, unassigned) [Example 117, (R)-4-amino-1-(2,6-dichloro-4-(1,2-difluoroethyl)phenyl)-N-(5-((methylamino)methyl)pyridin-3-yl)-6-oxo-1,6-dihydropyrimidine-5-carboxamide or (S)-4-amino-1-(2,6-dichloro-4-(1,2-difluoroethyl)phenyl)-N-(5-((methylamino)methyl)pyridin-3-yl)-6-oxo-1,6-dihydropyrimidine-5-carboxamide], the IC50 is 81.1 nM at GSK3B [1], 2.2 nM at human GSK3α, 104 nM at GSK3B [2] and 1.4 nM at GSK3A.

Regarding `CNC(COC)c1cncc(NC(=O)c2c(N)ncn(-c3c(Cl)cc(C(F)(F)F)cc3Cl)c2=O)c1` (single isomer, unassigned) [Example 121, (R)-4-amino-1-(2,6-dichloro-4-(trifluoromethyl)phenyl)-N-(5-(2-methoxy-1-(methylamino)ethyl)pyridin-3-yl)-6-oxo-1,6-dihydropyrimidine-5-carboxamide or (S)-4-amino-1-(2,6-dichloro-4-(trifluoromethyl)phenyl)-N-(5-(2-methoxy-1-(methylamino)ethyl)pyridin-3-yl)-6-oxo-1,6-dihydropyrimidine-5-carboxamide], the half-inhibitory concentration (IC50) on GSK3B [1] amounted to 395 nM; at human GSK3α it was 3.8 nM; on GSK3B [2] it was 306 nM; at GSK3A it was 3.4 nM.
